Results: patent publication US20210317134A1, “UBIQUITIN-SPECIFIC-PROCESSING PROTEASE 7 (USP7) MODULATORS AND USES THEREOF” (RAPT THERAPEUTICS, INC., priority 2019, published 2021)

Target: USP7 (Homo sapiens, UniProt Q93009)
Experiment: USP7 inhibitory potency (Table 1)
Format: biochemical

Chain of USP7 (Q93009 whole entry): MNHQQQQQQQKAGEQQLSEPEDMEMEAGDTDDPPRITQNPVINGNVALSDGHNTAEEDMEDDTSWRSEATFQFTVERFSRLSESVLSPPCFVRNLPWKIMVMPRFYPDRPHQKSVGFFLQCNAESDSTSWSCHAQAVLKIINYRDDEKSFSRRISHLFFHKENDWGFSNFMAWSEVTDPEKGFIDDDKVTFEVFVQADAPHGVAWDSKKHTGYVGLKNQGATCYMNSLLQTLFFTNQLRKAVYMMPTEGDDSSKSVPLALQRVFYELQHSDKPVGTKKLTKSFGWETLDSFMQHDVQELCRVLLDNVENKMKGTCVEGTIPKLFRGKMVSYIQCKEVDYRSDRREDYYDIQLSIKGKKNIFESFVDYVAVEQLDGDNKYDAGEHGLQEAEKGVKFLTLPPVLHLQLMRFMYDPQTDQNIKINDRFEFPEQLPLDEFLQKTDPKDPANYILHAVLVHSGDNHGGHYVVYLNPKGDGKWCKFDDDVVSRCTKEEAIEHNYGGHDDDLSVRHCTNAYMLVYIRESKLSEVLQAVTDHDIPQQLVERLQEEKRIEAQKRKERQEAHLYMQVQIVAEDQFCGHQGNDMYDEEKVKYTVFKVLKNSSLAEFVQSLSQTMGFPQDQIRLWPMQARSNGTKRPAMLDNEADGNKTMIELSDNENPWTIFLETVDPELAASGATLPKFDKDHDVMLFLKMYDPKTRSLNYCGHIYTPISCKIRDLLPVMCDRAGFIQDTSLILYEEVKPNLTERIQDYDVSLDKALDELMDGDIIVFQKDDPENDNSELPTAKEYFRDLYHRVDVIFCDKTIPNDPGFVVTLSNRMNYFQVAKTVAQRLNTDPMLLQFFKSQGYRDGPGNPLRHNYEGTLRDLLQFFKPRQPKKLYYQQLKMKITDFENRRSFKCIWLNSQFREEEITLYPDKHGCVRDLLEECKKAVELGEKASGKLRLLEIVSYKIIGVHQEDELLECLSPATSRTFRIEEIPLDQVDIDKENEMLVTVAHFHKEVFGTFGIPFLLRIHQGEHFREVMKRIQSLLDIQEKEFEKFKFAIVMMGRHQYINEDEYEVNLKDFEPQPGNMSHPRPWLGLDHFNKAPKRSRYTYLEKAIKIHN

| IC50 [nM] | Compound |
| --- | --- |
| < 1000 | OCc1ccc2c(-c3cc(Cl)cc4c3O[C@@H](c3onc5c3CNCC5)C4)ccnc2c1 [(R)-(4-(5-chloro-2-(4,5,6,7-tetrahydroisoxazolo[4,3-c]pyridin-3-yl)-2,3-dihydrobenzofuran-7-yl)quinolin-7-yl)methanol] |
| < 1000 | CC[C@@H](O)c1cc2nccc(-c3cc(Cl)cc4c3O[C@@H](C(=O)N3CCNCC3)C4)c2s1 [((R)-5-chloro-7-(2-((R)-1-hydroxypropyl)thieno[3,2-b]pyridin-7-yl)-2,3-dihydrobenzofuran-2-yl)(piperazin-1-yl)methanone] |
| < 1000 | CN(C)C1CN(C(=O)[C@H]2Cc3cc(Cl)cc(-c4ccnc5cc(CO)sc45)c3O2)C1 [(R)-(5-chloro-7-(2-(hydroxymethyl)thieno[3,2-b]pyridin-7-yl)-2,3-dihydrobenzofuran-2-yl)(3-(dimethylamino)azetidin-1-yl)methanone] |
| < 1000 | FC(F)(F)CNCc1cc2nccc(-c3cc(Cl)cc4c3O[C@@H](c3onc5c3CNCC5)C4)c2s1 [(R)-N-((7-(5-chloro-2-(4,5,6,7-tetrahydroisoxazolo[4,3-c]pyridin-3-yl)-2,3-dihydrobenzofuran-7-yl)thieno[3,2-b]pyridin-2-yl)methyl)-2,2,2-trifluoroethan-1-amine] |
| 10000 to 30000 | Cc1nc(-c2cc(Cl)cc3c2O[C@@H](c2onc4c2CNCC4)C3)c2sccc2n1 [(R)-3-(5-chloro-7-(2-methylthieno[3,2-d]pyrimidin-4-yl)-2,3-dihydrobenzofuran-2-yl)-4,5,6,7-tetrahydroisoxazolo[4,3-c]pyridine] |
| 1000 to 10000 | N#Cc1cc2nccc(-c3cc(Cl)cc4c3O[C@@H](C(=O)N3CCNCC3)C4)c2s1 [(R)-7-(5-chloro-2-(piperazine-1-carbonyl)-2,3-dihydrobenzofuran-7-yl)thieno[3,2-b]pyridine-2-carbonitrile] |
| < 1000 | C[C@@H]1CCN(Cc2cc3nccc(-c4cc(Cl)cc5c4O[C@@H](C(=O)N4CCNCC4)C5)c3s2)C1=O [(R)-1-((7-((R)-5-chloro-2-(piperazine-1-carbonyl)-2,3-dihydrobenzofuran-7-yl)thieno[3,2-b]pyridin-2-yl)methyl)-3-methylpyrrolidin-2-one] |
| < 1000 | CC(C)C(=O)NCc1cc2nccc(-c3cc(Cl)cc4c3O[C@@H](c3onc5c3CNCC5)C4)c2s1 [(R)-N-((7-(5-chloro-2-(4,5,6,7-tetrahydroisoxazolo[4,3-c]pyridin-3-yl)-2,3-dihydrobenzofuran-7-yl)thieno[3,2-b]pyridin-2-yl)methyl)isobutyramide] |
| 1000 to 10000 | CN(C)C(=O)CCc1cc2nccc(-c3cc(Cl)cc4c3O[C@@H](C(=O)N3CCNCC3)C4)c2s1 [(R)-3-(7-(5-chloro-2-(piperazine-1-carbonyl)-2,3-dihydrobenzofuran-7-yl)thieno[3,2-b]pyridin-2-yl)-N,N-dimethylpropanamide] |
| < 1000 | CC[C@@H](O)c1cc2nccc(-c3cc(Cl)cc4c3O[C@@](C)(c3onc5c3CNCC5)C4)c2s1 [(R)-1-(7-((R)-5-chloro-2-methyl-2-(4,5,6,7-tetrahydroisoxazolo[4,3-c]pyridin-3-yl)-2,3-dihydrobenzofuran-7-yl)thieno[3,2-b]pyridin-2-yl)propan-1-ol] |
| 1000 to 10000 | NCc1cc(-c2cc(Cl)cc3c2O[C@@H](c2onc4c2CNCC4)C3)c2ccccc2n1 [(R)-(4-(5-chloro-2-(4,5,6,7-tetrahydroisoxazolo[4,3-c]pyridin-3-yl)-2,3-dihydrobenzofuran-7-yl)quinolin-2-yl)methanamine] |
| 1000 to 10000 | CCN1CCc2noc([C@H]3Cc4cc(Cl)cc(-c5ncnc6ccoc56)c4O3)c2C1 [(R)-3-(5-chloro-7-(furo[3,2-d]pyrimidin-4-yl)-2,3-dihydrobenzofuran-2-yl)-5-ethyl-4,5,6,7-tetrahydroisoxazolo[4,3-c]pyridine] |
| 1000 to 10000 | O=C(NCc1ccccc1)c1cc2c(-c3cc(Cl)cc4c3OC(C(=O)N3CCNCC3)C4)ccnc2[nH]1 (stereo not drawn) [N-benzyl-4-(5-chloro-2-(piperazine-1-carbonyl)-2,3-dihydrobenzofuran-7-yl)-1H-pyrrolo[2,3-b]pyridine-2-carboxamide] |

The next lines start with the compound.

| Compound | IC50 [nM] |
| --- | --- |
| CCC(O)c1cc2nccc(-c3cc(Cl)cc4c3O[C@@H](c3ocnc3CNCCO)C4)c2s1 (stereo partly drawn) [1-(7-((R)-5-chloro-2-(4-(((2-hydroxyethyl)amino)methyl)oxazol-5-yl)-2,3-dihydrobenzofuran-7-yl)thieno[3,2-b]pyridin-2-yl)propan-1-ol] | < 1000 |
| Cn1nc2c(c1[C@H]1Cc3cc(Cl)cc(-c4ccnc5cc(CO)sc45)c3O1)CC(N1CCC1)CC2 (stereo partly drawn) [(7-((2R)-2-(5-(azetidin-1-yl)-2-methyl-4,5,6,7-tetrahydro-2H-indazol-3-yl)-5-chloro-2,3-dihydrobenzofuran-7-yl)thieno[3,2-b]pyridin-2-yl)methanol] | < 1000 |
| O=C(C1Cc2cc(Cl)cc(-c3ccnc4[nH]c(CO)cc34)c2O1)N1CCNCC1 (stereo not drawn) [(5-chloro-7-(2-(hydroxymethyl)-1H-pyrrolo[2,3-b]pyridin-4-yl)-2,3-dihydrobenzofuran-2-yl)(piperazin-1-yl)methanone] | < 1000 |
| Clc1cc2c(c(-c3ccnc4[nH]ccc34)c1)OC(c1onc3c1CNCC3)C2 (stereo not drawn) [3-(5-chloro-7-(1H-pyrrolo[2,3-b]pyridin-4-yl)-2,3-dihydrobenzofuran-2-yl)-4,5,6,7-tetrahydroisoxazolo[4,3-c]pyridine] | < 1000 |
| O=C(C1Cc2cc(Cl)cc(-c3ccnc4[nH]ccc34)c2O1)N1CCC2(CC1)CNC2 (stereo not drawn) [(5-chloro-7-(1H-pyrrolo[2,3-b]pyridin-4-yl)-2,3-dihydrobenzofuran-2-yl)(2,7-diazaspiro[3.5]nonan-7-yl)methanone] | 1000 to 10000 |
| O=C(C1Cc2cc(Cl)cc(-c3ccnc4[nH]ccc34)c2O1)N1CCN[C@H](CO)C1 (stereo partly drawn) [(5-chloro-7-(1H-pyrrolo[2,3-b]pyridin-4-yl)-2,3-dihydrobenzofuran-2-yl)((S)-3-(hydroxymethyl)piperazin-1-yl)methanone] | 1000 to 10000 |
| O=C(C1Cc2cc(Cl)cc(-c3ccnc(Cn4cnc5ccccc5c4=O)c3)c2O1)N1CCNCC1 (stereo not drawn) [3-((4-(5-chloro-2-(piperazine-1-carbonyl)-2,3-dihydrobenzofuran-7-yl)pyridin-2-yl)methyl)quinazolin-4(3H)-one] | 10000 to 30000 |
| CCC(O)c1cc2nccc(-c3cc(Cl)cc4c3O[C@@H](c3[nH]nc5c3CNCC5)C4)c2s1 (stereo partly drawn) [1-(7-((R)-5-chloro-2-(4,5,6,7-tetrahydro-2H-pyrazolo[4,3-c]pyridin-3-yl)-2,3-dihydrobenzofuran-7-yl)thieno[3,2-b]pyridin-2-yl)propan-1-ol] | < 1000 |
| C[C@H]1CN(C(=O)C2Cc3cc(Cl)cc(-c4ccnc5[nH]ccc45)c3O2)CCN1 (stereo partly drawn) [(5-chloro-7-(1H-pyrrolo[2,3-b]pyridin-4-yl)-2,3-dihydrobenzofuran-2-yl)((S)-3-methylpiperazin-1-yl)methanone] | 1000 to 10000 |
| C[C@H](O)c1cc2c(-c3cc(Cl)cc4c3OC(C(=O)N3CCNCC3)C4)ccnc2[nH]1 (stereo partly drawn) [(5-chloro-7-(2-((S)-1-hydroxyethyl)-1H-pyrrolo[2,3-b]pyridin-4-yl)-2,3-dihydrobenzofuran-2-yl)(piperazin-1-yl)methanone] | 1000 to 10000 |
| Clc1cc2c(c(-c3ccnc4ccnn34)c1)OC(c1onc3c1CNCC3)C2 (stereo not drawn) [3-(5-chloro-7-(pyrazolo[1,5-a]pyrimidin-7-yl)-2,3-dihydrobenzofuran-2-yl)-4,5,6,7-tetrahydroisoxazolo[4,3-c]pyridine] | 1000 to 10000 |
